Where no end group is shown, it is not given here. [ ]: non-standard residue; d: D form.
Columns and labels:
[1] = test system: Bothrops jararaca venom (BjV) SVSPs; assay: BjV SVSPs activity, fluorogenic substrate Abz-Ser; type: biochemical; conditions: peptide 100 µg/mL; for inhibition of BjV serine protease activity on Abz-Ser: substrate Abz-Ser 10 µM, BjV 5 µg/100µL, pre-incubated 10 min 37°C, PBS pH 7.4, 20mM NaCl, 20 min 37°C, fluorescence 420 nm (ex 320 nm), triplicate
Method: (§1) SVSPs activity from BjV was also evaluated using the fluorogenic substrate Abz-Ser. Briefly, BjV (5 µg/100µL) was pre-incubated at 37 °C for 10 minutes with 100 µg/mL of each peptide, in PBS pH 7.4 containing 20mM NaCl. Enzymatic reaction was initiated by addition of substrate (10 µM), followed by incubation at 37°C, for 20 minutes. The substrate hydrolysis was monitored following fluorescence emitted at 420 nm, under excitation at 320 nm in a spectrofluorimeter (Victor 3^TM Perkin- Elmer, Boston, MA, USA), as described by Araujo et al. (2000). All the experiments were made in triplicate.
Figure 3. Evaluation of synthetic peptides on Bothrops venom serine-proteases. BjV was pre-incubated with 100 µg/mL of pepB or pepC and a serine proteases activity was evaluated after 20 min, at 37 °C, with (A) 2 mM of substrate S2238 or (B) 10 µM of substrate Abz-Ser.

batroxobin = batroxobin thrombin-like activity, chromogenic substrate S-2238; type: biochemical, B. moojeni; conditions: for inhibition of batroxobin activity: peptide 60 µg/mL, absorbance 405 nm
Method: (§2) Batroxobin and human thrombin activities were evaluated using the chromogenic substrate S-2238 (Chromogenix). Briefly, batroxobin (0.8 U) or human thrombin (0.8U) was pre-incubated at 37°C for 10 minutes with different concentrations (0 to 1 mg/mL for batroxobin, and 60 µg/mL, for human thrombin), of each peptide in Tris/HCl buffer […], containing CaCl2 0.02% (v/v), pH 8.0. Enzymatic reaction was initiated by addition of substrate (200µM), followed by incubation at 37°C, for 20 minutes. When serine protease activity from BjV was evaluated using the chromogenic substrate S2238, 5 µg of BjV and 60 µg/mL of each peptide were employed.
(§3) For all assays using chromogenic substrates, hydrolysis was quantified by evaluation of absorbance at 405 nm, in a spectrophotometer SpectraMax® Paradigm® Multi-Mode reader from Molecular Devices (Sunnyvale, CA).
as §1
(§4) Figure 2. Evaluation of the effects of synthetic peptides on batroxobin and on human serine proteases activities. (A) Batroxobin activity was evaluated after 20 min, at 37 °C, using the chromogenic substrate S-2238 and the indicated concentrations of synthetic peptides. (B, C, D) Commercial hSPs had their activity evaluated after 20 min, at 37 °C, using their specific chromogenic substrates and batroxobin inhibitory peptides at 60 µg/mL.

human factor Xa = assay: proteolytic activity of human factor Xa, chromogenic substrate CS-11(22); type: biochemical; conditions: peptide 60 µg/mL; factor Xa 20nM; pre-incubated 10 min 37°C, Tris/HCl 20 mM, NaCl 150 mM, pH 7.4; CS-11(22) 100µM, 20 min 37°C; 405 nm; triplicate
Method: Proteolytic activity of human factor Xa was evaluated using the chromogenic substrate CS-11(22) (Hyphen). Briefly, factor Xa (20nM) was pre-incubated for 10 minutes at 37°C with 60 µg/mL of each peptide in Tris/HCl buffer 20 mM, pH 7.4 containing NaCl 150 mM. Enzymatic reaction was initiated by the addition of substrate (100µM), followed by incubation at 37°C, for 20 minutes.
as §3
as §1, with “Enzymatic reaction was initiated by addition of substrate (10 µM), followed by incubation at 37°C, for 20 minutes.” left out, “All the experiments were made in triplicate.” left out
as §4, with “Evaluation of the effects of synthetic peptides on batroxobin and on human serine proteases activities.” left out

human thrombin = human thrombin activity, chromogenic substrate S-2238; type: biochemical; conditions: peptide 60 µg/mL; human thrombin 0.8U; pre-incubated 10 min 37°C, Tris/HCl 0.15mM, CaCl2 0.02%, pH 8.0; S-2238 200 µM, 20 min 37°C; 405 nm; triplicate
Method: as §2, §3
as §1, with “All the experiments were made in triplicate.” left out

[2] = test system: Bothrops jararaca venom (BjV) serine proteases; assay: BjV serine protease (thrombin-like) activity, chromogenic substrate S2238; type: biochemical; conditions: BjV 5 µg, peptide 60 µg/mL or 100 µg/mL, S2238 200 µM or 2 mM, 20 min 37°C, 405 nm, triplicate
Method: as §2, §3
as §1, with “All the experiments were made in triplicate.” left out

human trypsin = assay: proteolytic activity of human trypsin, chromogenic substrate BAPNA; type: biochemical; conditions: peptide 60 µg/mL; trypsin 126 nM; pre-incubated 10 min 37°C, Tris/HCl 50 mM, CaCl2 0.02%, pH 8.0; BAPNA 1.25 mM, 20 min 37°C; 405 nm; triplicate
Method: Proteolytic activity of human trypsin was evaluated using the chromogenic substrate BAPNA (Sigma). Briefly, trypsin (126 nM) was pre-incubated for 10 minutes at 37°C with 60 µg/mL of each peptide in Tris/HCl buffer 50 mM containing CaCl2 0.02% (v/v), pH 8.0. Enzymatic reaction was initiated by addition of substrate (1.25 mM), followed by incubation at 37°C, for 20 minutes.
as §3
as §1, with “Enzymatic reaction was initiated by addition of substrate (10 µM), followed by incubation at 37°C, for 20 minutes.” left out, “All the experiments were made in triplicate.” left out
as §4, with “Evaluation of the effects of synthetic peptides on batroxobin and on human serine proteases activities.” left out

Bothrops spp venom SVSPs = conditions: ref [9]; cited from earlier work
Method: In this context, the use of selective SVSPs inhibitory compounds, in association with available commercial antivenoms, could be a starting point for studies aiming snakebite treatment efficacy improvement. Therefore, in the present study, small peptides were evaluated as potential SVSPs inhibitors.

[3] = batroxobin 0.8 U, pre-incubated 10 min 37°C, Tris/HCl 0.15mM, CaCl2 0.02%, pH 8.0, S-2238 200 µM, 20 min 37°C, triplicate

PF[dR]QAS [pepB, 6-mer peptide related to pepA, D-Arg replacing Tyr]
inhibitory effect of pepB relative to pepC on BjV with Abz-Ser ([1]; pepB compared with pepC): 4 times less efficient | inhibition of BjV serine protease activity on Abz-Ser [1]: 5.4 ± 0.7% | efficiency on batroxobin relative to pepC (batroxobin; pepB compared with pepC): twice more efficient than pepC | inhibition of batroxobin activity (batroxobin; [3]): 36 ± 7% | effect on catalytic activity of human factor Xa (human factor Xa): none of the peptides inhibited human serine proteases | effect on catalytic activity of human thrombin (human thrombin): none of the peptides inhibited human serine proteases | inhibition of BjV thrombin-like activity [2]: 15 ± 3% | effect on catalytic activity of human trypsin (human trypsin): none of the peptides inhibited human serine proteases

Abz-RPPGFSPFRQ-EDDnp [Abz-Ser]
selectivity as substrate for Bothrops spp venom SVSPs (Bothrops spp venom SVSPs): selective for Bothrops spp venom SVSPs

PFYQAS [pepA, 6-mer peptide designed based on carboxyl-terminus of the substrate Abz-Ser]
inhibition of batroxobin activity (in words) (batroxobin; tested until 1 mg/mL, batroxobin 0.8 U, pre-incubated 10 min 37°C, Tris/HCl 0.15mM, CaCl2 0.02%, pH 8.0, S-2238 200 µM, 20 min 37°C, triplicate): did not inhibit batroxobin activity

PFYQSS [pepC, 6-mer peptide related to pepA, a Ser instead of Ala]
inhibition of BjV serine protease activity on Abz-Ser [1]: 19.3 ± 0.7% | inhibition of batroxobin activity (batroxobin; [3]): 18 ± 4% | effect on catalytic activity of human factor Xa (human factor Xa): none of the peptides inhibited human serine proteases | effect on catalytic activity of human thrombin (human thrombin): none of the peptides inhibited human serine proteases | inhibition of BjV thrombin-like activity [2]: 18 ± 2% | effect on catalytic activity of human trypsin (human trypsin): none of the peptides inhibited human serine proteases
